This is an account of results in PMC3420359 (Journal of computer-aided molecular design, 2011).

Experiment [1] addresses rTRPV1 T550S (Rattus norvegicus, UniProt O35433, T550S). In words: biochemical. The class given is binding.
The target in experiment [2] is rTRPV1 T550I (Rattus norvegicus, UniProt O35433, T550I). In words: biochemical. The experiment is classed as binding.
The target of experiment [3] is rTRPV1 T550A (Rattus norvegicus, UniProt O35433, T550A). In words: biochemical. The experiment is classed as binding.
The target in experiment [4] is rTRPV1 Y511F (Rattus norvegicus, UniProt O35433, Y511F). In words: biochemical. The experiment is classed as binding.
Experiment [5] concerns the target rTRPV1 WT (Rattus norvegicus, UniProt O35433). In words: biochemical. The experiment is classed as binding.
Experiment [6] concerns the target rTRPV1 M547L (Rattus norvegicus, UniProt O35433, M547L). In words: biochemical. The class given is binding.
Experiment [7] addresses TRPV1. The following applies: cited from earlier work.

Sequence of rTRPV1 WT (O35433 whole entry): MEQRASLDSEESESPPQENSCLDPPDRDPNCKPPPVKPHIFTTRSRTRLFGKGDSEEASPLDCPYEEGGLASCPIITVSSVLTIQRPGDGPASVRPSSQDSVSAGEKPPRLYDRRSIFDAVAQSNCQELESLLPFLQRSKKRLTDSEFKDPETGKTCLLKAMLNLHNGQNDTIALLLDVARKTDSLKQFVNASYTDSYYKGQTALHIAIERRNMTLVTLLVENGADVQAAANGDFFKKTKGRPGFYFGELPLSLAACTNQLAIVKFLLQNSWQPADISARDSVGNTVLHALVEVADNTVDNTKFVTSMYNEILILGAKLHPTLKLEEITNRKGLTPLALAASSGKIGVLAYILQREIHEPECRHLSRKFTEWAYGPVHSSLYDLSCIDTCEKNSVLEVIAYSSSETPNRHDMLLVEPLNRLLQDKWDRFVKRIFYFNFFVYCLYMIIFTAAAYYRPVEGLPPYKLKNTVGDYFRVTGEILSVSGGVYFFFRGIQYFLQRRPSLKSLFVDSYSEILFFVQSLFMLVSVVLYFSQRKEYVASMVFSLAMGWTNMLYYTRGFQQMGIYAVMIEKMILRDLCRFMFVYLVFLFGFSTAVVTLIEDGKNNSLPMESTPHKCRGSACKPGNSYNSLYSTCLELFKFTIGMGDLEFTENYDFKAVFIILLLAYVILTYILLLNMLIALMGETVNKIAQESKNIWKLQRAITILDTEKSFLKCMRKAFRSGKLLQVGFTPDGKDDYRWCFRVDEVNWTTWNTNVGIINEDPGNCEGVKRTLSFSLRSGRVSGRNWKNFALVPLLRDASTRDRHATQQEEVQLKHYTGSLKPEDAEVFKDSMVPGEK
Sequence of rTRPV1 Y511F (O35433 whole entry Y511F): as the sequence (O35433 whole entry) above, with Y511F counted along it
Sequence of rTRPV1 T550S (O35433 whole entry T550S): as the sequence (O35433 whole entry) above, with T550S counted along it
Sequence of rTRPV1 T550A (O35433 whole entry T550A): as the sequence (O35433 whole entry) above, with T550A counted along it
Sequence of rTRPV1 M547L (O35433 whole entry M547L): as the sequence (O35433 whole entry) above, with M547L counted along it
Sequence of rTRPV1 T550I (O35433 whole entry T550I): as the sequence (O35433 whole entry) above, with T550I counted along it

For `C=C(C)[C@]12C[C@@H](C)[C@@]34O[C@](Cc5ccccc5)(O[C@@H]1[C@@H]3C=C(COC(=O)Cc1ccc(O)c(OC)c1)C[C@]1(O)C(=O)C(C)=C[C@@H]41)O2` [RTX, resiniferatoxin], the Kd in experiment [1] is 0.233 ± 0.022 nM; in experiment [2], 4.16 ± 0.82 nM; in experiment [3], 0.417 ± 0.062 nM; in experiment [4] it was 0.79 ± 0.13 nM; in experiment [5], 0.203 ± 0.02 nM; in experiment [6], 2.38 ± 0.24 nM. The Maximal binding capacity in experiment [5] is 6400 fmol/mg protein. Besides, in experiment [5], the Ratio was 1.0.

`COc1cc(CNC(=S)NCC(COC(=O)C(C)(C)C)Cc2ccc(C(C)(C)C)cc2)ccc1O` (stereo not drawn) [sRTX, N-{3-pivaloyloxy-2-(4-t-butylbenzyl)propyl}-N′-(4-hydroxyl-3-methoxybenzyl)thiourea]: in experiment [7], the Ki was 11 nM.

As usually defined, the Kd is the free concentration of one partner at which half of the binding sites on the other are occupied at equilibrium, for simple one-to-one binding. For orientation: Ki means the equilibrium dissociation constant of an inhibitor or competing ligand from its target.
